One may read the pKi as the Ki on a negative log10 scale, so that one unit is a factor of ten.

pKi: −log10 of the molar value.

This note sets out measurements from patent publication US20070203121A1, “SUBSTITUTED INDOLE COMPOUNDS, THEIR PREPARATION AND USE IN MEDICAMENTS” (LABORATORIOS DEL DR. ESTEVE S.A, priority 2004, published 2007).

T1 sequence (P50406 whole entry): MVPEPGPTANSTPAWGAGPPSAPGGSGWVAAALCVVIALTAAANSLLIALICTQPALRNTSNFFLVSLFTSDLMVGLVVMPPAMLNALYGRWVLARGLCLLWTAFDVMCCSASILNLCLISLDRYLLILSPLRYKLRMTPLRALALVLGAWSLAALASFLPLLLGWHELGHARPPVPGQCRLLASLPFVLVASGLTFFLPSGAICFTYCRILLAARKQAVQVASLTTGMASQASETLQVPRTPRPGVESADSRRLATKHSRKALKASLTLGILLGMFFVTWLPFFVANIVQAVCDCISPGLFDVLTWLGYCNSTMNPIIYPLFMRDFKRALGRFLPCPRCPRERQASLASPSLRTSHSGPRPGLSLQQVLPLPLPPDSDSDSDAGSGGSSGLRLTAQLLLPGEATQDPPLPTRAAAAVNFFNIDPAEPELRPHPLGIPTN

The assay addresses T1, 5HT6-human recombinant receptor (Homo sapiens, UniProt P50406).
T1 construct: purchased Receptor Biology; host or cells: HEK-293 cells (membranes)
Description: Binding to Serotonin Receptor 5-HT6 ([3H]-LSD displacement). To be noted: membranes of HEK-293 cells expressing the receptor; radioligand [3H]-LSD 2.7 nM; 60 minutes at 37° C.; triplicate. As to the method: I) Binding to Serotonin Receptor 5-HT6
Cell membranes of HEK-293 cells expressing the 5HT6-human recombinant receptor were supplied by Receptor Biology. In said membranes the receptor concentration is 2.18 pmol/mg protein and the protein concentration is 9.17 mg/ml. The experimental protocol follows the method of B. L. Roth et al. [B. L. Roth, S. C. Craigo, M. S. Choudhary, A. Uluer, F. J. Monsma, Y. Shen, H. Y. Meltzer, D. R. Sibley: Binding of Typical and Atypical Antipsychotic Agents to 5-Hydroxytryptamine-6 and Hydroxytryptamine-7 Receptors. The Journal of Pharmacology and Experimental Therapeutics, 1994, 268, 1403] with the following slight changes. The respective part of the literature description is hereby incorporated by reference and forms part of the disclosure.
The commercial membrane is diluted (1:40 dilution) with the binding buffer: 50 mM Tris-HCl, 10 mM MgCl2, 0.5 mM EDTA (pH 7.4). The radioligand used is [^3H]-LSD at a concentration of 2.7 nM with a final volume of 200 μl. Incubation is initiated by adding 100 μl of membrane suspension, (≈22.9 μg membrane protein), and is prolonged for 60 minutes at a temperature of 37° C. The incubation is ended by fast filtration in a Brandel Cell Harvester through fiber glass filters made by Schleicher & Schuell GF 3362 pretreated with a solution of polyethylenimine at 0.5%. The filters are washed three times with three milliliters of buffer Tris-HCl 50 mM pH 7.4. The filters are transferred to flasks and 5 ml of Ecoscint H liquid scintillation cocktail are added to each flask. The flasks are allowed to reach equilibrium for several hours before counting with a Wallac Winspectral 1414 scintillation counter. Non-specific binding is determined in the presence of 100 μM of serotonin. Tests were made in triplicate. The inhibition constants (Ki, nM) were calculated by non-linear regression analysis using the program EBDA/LIGAND described in Munson and Rodbard, Analytical Biochemistry, 1980, 107, 220, the respective part of which is hereby incorporated by reference and forms part of the disclosure.
The binding of the substituted indole compounds to the 5-HT6 receptor was determined as described above.
In the case of `CN(C)C(=O)C(=O)c1c[nH]c2cccc(NS(=O)(=O)c3c(Cl)nc4sccn34)c12` [Example 13, 2-[4-(6-Chloro-imidazo[2,1-b]thiazole-5-sulfonylamino)-1H-indol-3-yl]-N,N-dimethyl-2-oxo-acetamide], the pKi is 6.79.
Then `CN(C)C(=O)C(=O)c1c[nH]c2ccc(NS(=O)(=O)c3c(Cl)nc4sccn34)cc12` [Example 10, 2-[5-(6-Chloro-imidazo[2,1-b]thiazole-5-sulfonylamino)-1H-indol-3-yl]-N,N-dimethyl-2-oxo-acetamide], with 7.74.
In the case of `CCN(CC)C(=O)C(=O)c1c[nH]c2ccc(NS(=O)(=O)c3c(Cl)nc4sccn34)cc12` [Example 9, 2-[5-(6-Chloro-imidazo[2,1-b]thiazole-5-sulfonylamino)-1H-indol-3-yl]-N,N-diethyl-2-oxo-acetamide] it was 6.65; in that of `CN(C)C(=O)C(=O)c1c[nH]c2ccc(NS(=O)(=O)c3ccc(Oc4ccccc4)cc3)cc12` [Example 20, N,N-Dimethyl-2-[5-[(4-phenoxy-phenyl)-1-sulfonylamino]-1H-indol-3-yl]-2-oxo-acetamide], 6.95.
In the case of `Cc1[nH]c2ccc(NS(=O)(=O)c3c(Cl)nc4sccn34)cc2c1C(=O)C(=O)N(C)C` [Example 22, 2-(5-(6-chloroimidazo[2,1-b]thiazole-5-sulfonamido)-2-methyl-1H-indol-3-yl)-N,N-dimethyl-2-oxoacetamide] it was 7.28.
